Tests used:
[1] = target: T1, α1G T-type calcium channel (Homo sapiens, UniProt O43497); experiment: Assay for % inhibiting activity against T-type calcium channel using FDSS6000; format: cell-based; conditions: HEK293 cells expressing α1G; for inhibition at 10 µM: HEK293, 10 μM; for % Inhibition [α1G, 10 μM) using FDSS6000: hydrochloride
T1 construct: host or cells: HEK293
Description: In the present invention, in order to search an efficient inhibitor against T-type calcium channel, a primary assay for T-type calcium channel inhibiting activity was conducted by a high-efficient assay using FDSS6000, wherein mammal HEK293 cell lines (originated from human kidney carcinoma cells) which specifically expresses α1G of T-type calcium channel was used for primary assay. Through the primary assay, compounds which show meaningful inhibition effects were selected. The selected compounds were used in a second assay for T-type calcium channel inhibiting activity using electrophysiological whole cell patch clamp method, wherein mammal HEK293 cell lines (originated from human kidney carcinoma cells) which specifically expresses α1G of T-type calcium channel was used for the second assay.
At 12-24 hours before being used for this assay, cells of HEK293 cell line (α1G cell line: KCTC 10519BP, Korean Collection for Type Cultures), which stably express α1G T-type calcium channel and Kir2.1, were sub-cultured in a poly-L-lysine treated 96-well plate with the density of 4×10^4 per a well using a 96-well cell dispenser (Titertek). On the of assay, the 96-well plate to which the cells were attached were washed three times with HEPES buffer solution (150 mM of NaCl, 5 mM of KCl, 1 mM of MgCl2, 2 mM of CaCl2, 10 mM of HEPES, 10 mM of glucose; pH 7.4) using a 96-well plate automatic washing device (Bio Tek), then reacted with HEPES buffer solution containing 5 μM fluo-3/AM and 0.001% Pluronic F-127 under room temperature for 1 hour, to label with fluorescent dye, and then further washed two times with HEPES buffer solution.
Thereafter, at 10 minutes before the measurement using device FDSS6000, a washing with HEPES buffer solution containing 10 mM CaCl2 was conducted once more, and the final volume was adjusted to 81 μl. Besides the above 96-well plate containing the cells, additional two drug 96-well plates were provided, wherein the 96-well plates contain inhibiting drug and KCl (final concentration: 75 mM) for activating T-type calcium channel, respectively. Since most of cell-based HTS devices are equipped with a liquid application system for injection of drug, but have no liquid sucking system, the inhibiting drug to be tested and KCl were respectively provided at the five-times higher concentration in 10 mM CaCl2 HEPES buffer solution at the amount of 27 μl, diluted five-times at the final cell plate volume of 135 μl, and then used in this test. The concrete method of measurement using FDSS6000 was as follows: After recording the reference value of 20 seconds, the change of intracellular Ca^2+ concentration which induced by treatment of the inhibiting drug to be tested for 75 seconds followed by administration of KCl was measured, wherein the percentage (%) inhibition effect of the test drug, through estimating the area of ratio value of 340/380 in the control without treatment of the test drug as 100%. As a reference drug, mibefradil was used.
For accurate calcium-imagination, the light source of 4 xenon lamps in FDSS6000 were radiated to make the cells exposed selectively to the excitation wavelength (340 nm and 380 nm) by computer-controlled filter wheel. Data was obtained at interval of each 1.23 second. The emitter fluorescence light inflowed through long-pass filter was obtained as an average 340/380 ratio value for each well in the 96-wells by using CCD camera and digital fluorescence analyzer in FDSS6000. All image data and analyses were obtained by using FDSS6000-exclusive program provide from Hamamatsu Photonics.

[2] = Table 3 (Chemical Formula 2 series)
[3] = Table 4 (Chemical Formula 3 series)

T1 sequence (O43497 whole entry): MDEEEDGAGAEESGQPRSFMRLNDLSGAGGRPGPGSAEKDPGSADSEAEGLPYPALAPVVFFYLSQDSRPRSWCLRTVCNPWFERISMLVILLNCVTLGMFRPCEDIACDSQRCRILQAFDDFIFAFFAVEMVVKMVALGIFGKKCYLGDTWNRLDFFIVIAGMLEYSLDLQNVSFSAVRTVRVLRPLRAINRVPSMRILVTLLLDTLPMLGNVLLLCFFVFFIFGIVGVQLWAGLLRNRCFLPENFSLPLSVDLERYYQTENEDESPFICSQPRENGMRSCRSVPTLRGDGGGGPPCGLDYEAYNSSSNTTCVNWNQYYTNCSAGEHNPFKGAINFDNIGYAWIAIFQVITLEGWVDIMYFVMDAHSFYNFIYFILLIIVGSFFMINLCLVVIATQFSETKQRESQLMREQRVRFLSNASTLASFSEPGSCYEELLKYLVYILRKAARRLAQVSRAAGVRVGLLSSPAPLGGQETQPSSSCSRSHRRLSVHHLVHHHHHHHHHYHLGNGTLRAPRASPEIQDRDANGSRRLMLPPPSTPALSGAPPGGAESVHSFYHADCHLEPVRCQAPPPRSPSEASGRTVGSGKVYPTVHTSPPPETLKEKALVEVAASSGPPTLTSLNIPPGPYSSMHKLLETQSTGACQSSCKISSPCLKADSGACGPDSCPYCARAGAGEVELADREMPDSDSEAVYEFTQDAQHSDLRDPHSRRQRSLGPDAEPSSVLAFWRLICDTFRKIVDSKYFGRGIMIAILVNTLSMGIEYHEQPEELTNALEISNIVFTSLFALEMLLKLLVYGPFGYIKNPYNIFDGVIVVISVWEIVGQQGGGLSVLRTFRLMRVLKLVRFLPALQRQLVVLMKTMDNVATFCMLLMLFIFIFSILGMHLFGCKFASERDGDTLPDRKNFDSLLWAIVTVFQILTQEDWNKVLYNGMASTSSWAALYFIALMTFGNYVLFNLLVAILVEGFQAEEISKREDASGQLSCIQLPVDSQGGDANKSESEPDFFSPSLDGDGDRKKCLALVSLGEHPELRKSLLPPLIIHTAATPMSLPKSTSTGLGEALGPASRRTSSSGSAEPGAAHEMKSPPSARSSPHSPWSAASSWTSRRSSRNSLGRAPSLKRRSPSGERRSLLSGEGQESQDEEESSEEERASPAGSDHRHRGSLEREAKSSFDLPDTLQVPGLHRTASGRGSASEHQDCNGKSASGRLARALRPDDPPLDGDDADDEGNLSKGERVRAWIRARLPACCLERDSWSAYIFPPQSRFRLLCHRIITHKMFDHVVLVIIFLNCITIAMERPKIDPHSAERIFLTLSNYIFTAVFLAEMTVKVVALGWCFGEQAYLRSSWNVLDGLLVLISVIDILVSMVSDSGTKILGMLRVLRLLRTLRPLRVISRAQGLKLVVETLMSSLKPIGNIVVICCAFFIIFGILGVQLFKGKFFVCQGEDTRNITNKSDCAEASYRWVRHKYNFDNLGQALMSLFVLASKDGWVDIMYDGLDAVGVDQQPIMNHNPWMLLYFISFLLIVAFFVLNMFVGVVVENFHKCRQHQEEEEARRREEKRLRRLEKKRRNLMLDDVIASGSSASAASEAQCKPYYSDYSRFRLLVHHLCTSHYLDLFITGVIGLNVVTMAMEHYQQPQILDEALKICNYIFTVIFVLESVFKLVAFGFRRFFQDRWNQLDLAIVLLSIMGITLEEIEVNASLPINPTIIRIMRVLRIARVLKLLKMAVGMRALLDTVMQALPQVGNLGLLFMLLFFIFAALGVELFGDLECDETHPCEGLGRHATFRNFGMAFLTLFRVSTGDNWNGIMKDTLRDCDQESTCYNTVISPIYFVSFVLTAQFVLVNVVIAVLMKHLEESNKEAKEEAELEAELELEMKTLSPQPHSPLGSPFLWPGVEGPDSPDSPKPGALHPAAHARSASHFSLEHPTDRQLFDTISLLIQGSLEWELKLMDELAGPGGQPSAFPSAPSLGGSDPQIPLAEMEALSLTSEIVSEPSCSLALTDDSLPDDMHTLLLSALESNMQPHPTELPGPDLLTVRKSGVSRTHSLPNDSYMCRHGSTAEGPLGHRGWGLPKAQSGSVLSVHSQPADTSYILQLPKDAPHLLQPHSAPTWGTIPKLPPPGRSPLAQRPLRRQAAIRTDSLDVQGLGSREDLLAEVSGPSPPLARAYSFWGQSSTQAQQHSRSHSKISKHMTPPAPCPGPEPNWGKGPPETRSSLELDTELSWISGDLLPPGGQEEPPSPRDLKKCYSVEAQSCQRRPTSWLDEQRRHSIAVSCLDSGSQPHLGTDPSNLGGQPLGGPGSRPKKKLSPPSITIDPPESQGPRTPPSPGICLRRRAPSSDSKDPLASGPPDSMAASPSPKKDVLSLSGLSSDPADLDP

| SMILES | inhibition at 10 µM [1, 2] | melting point | inhibition at 10 µM [1, 3] | % Inhibition [α1G, 10 μM) using FDSS6000 [1, 2] |
| --- | --- | --- | --- | --- |
| Cl.NC(N)=Nc1nc(-c2ccc(-c3ccccc3)cc2)cs1 [KHG24038, 2-(4-(biphenyl-4-yl)thiazole-2-yl)guanidine hydrochloride] |  | 300.3 °C | 14.2% |  |
| Br.NC(N)=Nc1nc(-c2cccc(Br)c2)cs1 [KHG24386, 2-(4-(3-bromophenyl)thiazole-2-yl)guanidine hydrobromide] |  | 179.8 °C | 10.9% |  |
| Br.COc1ccc(-c2csc(N=C(N)N)n2)c(F)c1 [KHG24377, 2-(4-(2-fluoro-4-methoxyphenyl)thiazole-2-yl)guanidine hydrobromide] |  | 202.6 °C | 20.2% |  |
| Br.NC(N)=Nc1nc(-c2cccc(C(F)(F)F)c2)cs1 [KHG24385, 2-(4-(3-(trifluoromethyl)phenyl)thiazole-2-yl)guanidine hydrobromide] |  | 224.8 °C | 15.8% |  |
| Cl.NC(N)=Nc1nc(-c2ccc3c(c2)OCC(=O)N3)cs1 [KHG24037, 2-(4-(3-oxo-3,4-dihydro-2H-benzo[b][1,4]oxazine-7-yl)thiazole-2-yl)guanidine hydrochloride] |  | 233.3 °C | 21.2% |  |
| Br.NC(N)=Nc1nc(-c2ccccc2Cl)cs1 [KHG24373, 2-(4-(2-chlorophenyl)thiazole-2-yl)guanidine hydrobromide] |  | 211.9 °C | 21.7% |  |
| Br.CCc1ccc(-c2csc(N=C(N)N)n2)cc1 [KHG24387, 2-(4-(4-ethylphenyl)thiazole-2-yl)guanidine hydrobromide] |  | 234.8 °C | 17.1% |  |
| Br.Cc1cccc(-c2csc(N=C(N)N)n2)c1 [KHG24382, 2-(4-m-tolylthiazole-2-yl)guanidine hydrobromide] |  | 232.4 °C | 22.3% |  |
| Br.COc1ccccc1-c1csc(N=C(N)N)n1 [KHG24374, 2-(4-(2-methoxyphenyl)thiazole-2-yl)guanidine hydrobromide] |  | 245.4 °C | 20.7% |  |
| Cl.NC(N)=Nc1nc(-c2ccc(F)cc2F)cs1 [KHG24026, 2-(4-(2,4-difluorophenyl)thiazole-2-yl)guanidine hydrochloride] |  | 248.9 °C | 19.8% |  |
| Br.NC(N)=Nc1nc(-c2cccc(Cl)c2)cs1 [KHG24388, 2-(4-(3-chlorophenyl)thiazole-2-yl)guanidine hydrobromide] |  | 210.4 °C | 10.8% |  |
| Cl.NC(N)=Nc1nc(-c2ccc(F)cc2)cs1 [KHG24025, 2-(4-(4-fluorophenyl)thiazole-2-yl)guanidine hydrochloride] |  | 223.3 °C | 19.9% |  |
| Cl.NC(N)=Nc1nc(-c2ccc(Cl)cc2)cs1 [KHG24024, 2-(4-(4-chlorophenyl)thiazole-2-yl)guanidine hydrochloride] |  | 264.9 °C | 13% |  |

Now from value to compound:

| inhibition at 10 µM [1, 2] | melting point | inhibition at 10 µM [1, 3] | % Inhibition [α1G, 10 μM) using FDSS6000 [1, 2] | SMILES |
| --- | --- | --- | --- | --- |
| 21.4% | 187.9 to 188.6 °C |  |  | Cc1ccc(CNC(=O)Cc2csc(N=C(N)N)n2)cc1.Cl [KHG23187, 2-(2-(diaminomethyleneamino)thiazole-4-yl)-N-(4-methylbenzyl)acetamide hydrochloride] |
|  | 238.6 to 240.4 °C |  | 30.68% | Cc1ccc(NC(=O)Cc2csc(N=C(N)N)n2)cc1Cl.Cl [KHG23170, N-(3-chloro-4-methylphenyl)-2-(2-(diaminomethyleneamino)thiazole-4-yl)acetamide hydrochloride] |
| 12.3% | 248.5 to 249.2 °C |  |  | Cl.NC(N)=Nc1nc(CC(=O)Nc2cc(Cl)cc(Cl)c2)cs1 [KHG23185, 2-(2-(diaminomethyleneamino)thiazole-4-yl)-N-(3,5-dichlorophenyl)acetamide hydrochloride] |
| 29.8% | 228 to 229.1 °C |  |  | CCc1ccc(NC(=O)Cc2csc(N=C(N)N)n2)cc1.Cl [KHG23186, 2-(2-(diaminomethyleneamino)thiazole-4-yl)-N-(4-ethylphenyl)acetamide hydrochloride] |
| 24.9% | 244.3 to 245 °C |  |  | Cl.NC(N)=Nc1nc(CC(=O)Nc2ccc(Cl)cc2)cs1 [KHG23184, N-(4-chlorophenyl)-2-(2-(diaminomethyleneamino)thiazole-4-yl)acetamide hydrochloride] |
|  | 209.5 °C | 19.6% |  | Br.NC(N)=Nc1nc(-c2ccccc2)cs1 [KHG24380, 2-(4-phenylthiazole-2-yl)guanidine hydrobromide] |
| 23.3% | 197.8 to 198.1 °C |  |  | Cl.NC(N)=Nc1nc(CC(=O)Nc2ccccc2)cs1 [KHG23177, 2-(2-(diaminomethyleneamino)thiazole-4-yl)-N-phenylacetamide hydrochloride] |
| 16.8% | 242.1 to 242.6 °C |  |  | CCOc1ccc(NC(=O)Cc2csc(N=C(N)N)n2)cc1.Cl [KHG23192, N-(4-ethoxyphenyl)-2-(2-(diaminomethyleneamino)thiazole-4-yl)acetamide hydrochloride] |
|  | 225.8 to 228.4 °C |  | 30.76% | COc1ccc(NC(=O)Cc2csc(N=C(N)N)n2)cc1F.Cl [KHG23179, 2-(2-(diaminomethyleneamino)thiazole-4-yl)-N-(3-fluoro-4-methoxyphenyl)acetamide hydrochloride] |
| 20.5% | 218.4 to 219.4 °C |  |  | Cl.N#Cc1ccc(NC(=O)Cc2csc(N=C(N)N)n2)cc1 [KHG23176, N-(4-cyanophenyl)-2-(2-(diaminomethyleneamino)thiazole-4-yl)acetamide hydrochloride] |
| 23.2% | 232.8 to 233.9 °C |  |  | Cl.NC(N)=Nc1nc(CC(=O)Nc2ccc(F)cc2Cl)cs1 [KHG23169, N-(2-chloro-4-fluorophenyl)-2-(2-(diaminomethyleneamino)thiazole-4-yl)acetamide hydrochloride] |
| 19.3% | 169.3 to 170.1 °C |  |  | Cc1ccc(CCNC(=O)Cc2csc(N=C(N)N)n2)cc1.Cl [KHG23188, 2-(2-(diaminomethyleneamino)thiazole-4-yl)-N-(4-methylphenethyl)acetamide hydrochloride] |
| 18% | 219.7 to 220.5 °C |  |  | Cc1ccc(NC(=O)Cc2csc(N=C(N)N)n2)c(Br)c1.Cl [KHG23191, N-(2-bromo-4-methylphenyl)-2-(2-(diaminomethyleneamino)thiazole-4-yl)acetamide hydrochloride] |
| 19.3% | 206.9 to 207.6 °C |  |  | Cl.NC(N)=Nc1nc(CC(=O)NCc2ccc(F)c(F)c2)cs1 [KHG23189, 2-(2-(diaminomethyleneamino)thiazole-4-yl)-N-(3,4-difluorobenzyl)acetamide hydrochloride] |
| 21.5% | 207.3 to 208.2 °C |  |  | Cl.NC(N)=Nc1nc(CC(=O)Nc2ccc(F)cc2)cs1 [KHG23171, 2-(2-(diaminomethyleneamino)thiazole-4-yl)-N-(4-fluorophenyl)acetamide hydrochloride] |
| 18.8% | 218.6 to 220 °C |  |  | Cc1ccc(NC(=O)Cc2csc(N=C(N)N)n2)c(Cl)c1.Cl [KHG23174, N-(2-chloro-4-methylphenyl)-2-(2-(diaminomethyleneamino)thiazole-4-yl)acetamide hydrochloride] |
| 28.1% | 237.2 to 239.8 °C |  |  | Cl.NC(N)=Nc1nc(CC(=O)Nc2ccc(Cl)cc2F)cs1 [KHG23173, N-(4-chloro-2-fluorophenyl)-2-(2-(diaminomethyleneamino)thiazole-4-yl)acetamide hydrochloride] |

From patent US8143296B2, “Thiazole-based compound and inhibitor of T-type calcium channel containing the same” (Korea Institute of Science and Technology, priority 2006, dated 2012)
